The values below come from the OligoGym collection.

These antisense oligonucleotides have a phosphorothioate backbone; sugars and methylation of C are not fully specified.
Also: test concentration or dose not given here.

The first data set deals with CHUK. Particulars: ASO.
TTAAACTACAAAGGCTAT: the remaining target (mRNA or protein) (fraction of control) was not below 1.

Regarding ATTGGCATGGTTCAACTT, the remaining target (mRNA or protein) (fraction of control) was determined as 0.69.

Turning to TTCCCGATGCTGGTACAG, the remaining target (mRNA or protein) (fraction of control) was determined as 0.63.

CATAGTGGATGGCCTTTT showed a remaining target (mRNA or protein) (fraction of control) of 0.66.

The sequence CTGAGATCAAAGTGTTCT yielded a remaining target (mRNA or protein) (fraction of control) not below 1.

Another data set has as its target NCOA1. Particulars: ASO.
As for GTGGTTATTCAGTCAGTA, the remaining target (mRNA or protein) (fraction of control) was 0.56.

Regarding ATGATGATGAAGCCGAAT, the remaining target (mRNA or protein) (fraction of control) came out at 0.93.

On to TCCCCGTTTGAACTGGTA, for which the remaining target (mRNA or protein) (fraction of control) worked out at 0.63.

For CTTCCTCACTAAATCTTC, the remaining target (mRNA or protein) (fraction of control) was not below 1.

For AAAAGTGGTTATTCAGTC, the remaining target (mRNA or protein) (fraction of control) was determined as 0.62.

In turn, TTCCTTTAAAAGTGGTTA displayed a remaining target (mRNA or protein) (fraction of control) of 0.71.

TCCGTGCTTGATGCCAGT: the remaining target (mRNA or protein) (fraction of control) came to 0.34.

TCATGATGATGAAGCCGA returned a remaining target (mRNA or protein) (fraction of control) of 0.58.

For AAAGTGGTTATTCAGTCA, the remaining target (mRNA or protein) (fraction of control) was determined as 0.71.

Sequence CTGAGGATTGATTCCAGT displayed a remaining target (mRNA or protein) (fraction of control) of 0.67.

Regarding TGCTTGGTCATAAAGGAT, the remaining target (mRNA or protein) (fraction of control) came out at 0.74.

GGTTATTCAGTCAGTAGC: the remaining target (mRNA or protein) (fraction of control) stood at 0.57.

With CCTTGACTACTTGATGAG, the remaining target (mRNA or protein) (fraction of control) was 0.77.

In turn, CTCTTGTTCCATTCTCTT came in with a remaining target (mRNA or protein) (fraction of control) of 0.61.

For another data set, the target named is WWP1. The following applies: ASO.
The sequence TATGAAAGATGGTCTGGATT had a remaining target (mRNA or protein) (fraction of control) of 0.99.

As for AACAGTAGTACTAGTGCAAT, the remaining target (mRNA or protein) (fraction of control) is not below 1.

As to ATCTTTGTTCTCCTCAGTCA, the remaining target (mRNA or protein) (fraction of control) worked out at 0.92.

CTGTTGGAAGGAATCTTCAA had a remaining target (mRNA or protein) (fraction of control) not below 1.

As for GTTGGTGCAAATGAGGATGA, the remaining target (mRNA or protein) (fraction of control) is 0.95.

The sequence TGTTGTTATCTCTTATCCAG displayed a remaining target (mRNA or protein) (fraction of control) of 0.92.

For the sequence AAATAACGGAAGTGAGCAAG, the remaining target (mRNA or protein) (fraction of control) turned out to be 0.88.

ATTGATCTTTACATGACTAG returned a remaining target (mRNA or protein) (fraction of control) of 0.83.

In the case of AGTATCAATAGATTCCAAAT, the remaining target (mRNA or protein) (fraction of control) was not below 1.

The sequence AACATTGAAGCCGAATAGAG returned a remaining target (mRNA or protein) (fraction of control) not below 1.

In the case of AGAATGGTAAAGAGAAACCA, the remaining target (mRNA or protein) (fraction of control) is not below 1.

Take GTTGTTGTTCTGGTGTTATG: the remaining target (mRNA or protein) (fraction of control) is 0.95.

As to TCCCAGACTGCTGCCGTACA, the remaining target (mRNA or protein) (fraction of control) was 0.47.

For the sequence GATCCACATAATAGGTTCTA, the remaining target (mRNA or protein) (fraction of control) was not below 1.

The sequence AACTTCAGGTCATGTGAAGT displayed a remaining target (mRNA or protein) (fraction of control) not below 1.

Regarding TTCAAAATTTCGGACAGATT, the remaining target (mRNA or protein) (fraction of control) was not below 1.

AAGGTTGTGGTCTCTCCCAT had a remaining target (mRNA or protein) (fraction of control) not below 1.

For the sequence GCATAGCTCCCTGCAATTGG, the remaining target (mRNA or protein) (fraction of control) was not below 1.

CATAAGCAATTTGTGGACCA returned a remaining target (mRNA or protein) (fraction of control) not below 1.

TAAGCGCCTCCTCAAGTCAT: the remaining target (mRNA or protein) (fraction of control) came out at 0.86.

Turning to AATTTCCCAGCCTTCTGGCA, the remaining target (mRNA or protein) (fraction of control) is not below 1.

Regarding GAATTAGAGGTGTCAGGCTC, the remaining target (mRNA or protein) (fraction of control) was not below 1.

CTTTGTTCCCACCCTGATGG gave a remaining target (mRNA or protein) (fraction of control) of 0.98.

Regarding CCTGGTGGCAAAGGTCCATA, the remaining target (mRNA or protein) (fraction of control) is not below 1.

Turning to TTTCTGAGGAAGTCAGTATT, the remaining target (mRNA or protein) (fraction of control) was not below 1.

With TCCCATTGCGAGGATCTTTG, the remaining target (mRNA or protein) (fraction of control) is not below 1.

TTTGTGTTATGATTCACAAA displayed a remaining target (mRNA or protein) (fraction of control) of 0.95.

In the case of ATGTCAACAGAAAAGTACAT, the remaining target (mRNA or protein) (fraction of control) was not below 1.

ATTCCAATTCTGCACTGGTA: the remaining target (mRNA or protein) (fraction of control) is not below 1.

As to ATACATTGGGTTCAAAACTT, the remaining target (mRNA or protein) (fraction of control) turned out to be 0.92.

Regarding TGTCTTGATTTGGCTGCTTC, the remaining target (mRNA or protein) (fraction of control) was determined as 0.91.

For TATGATCAACAAAGTACCTT, the remaining target (mRNA or protein) (fraction of control) is not below 1.

In turn, CACCATAATCAAGTCCTTCT had a remaining target (mRNA or protein) (fraction of control) of 0.52.

Take ATCTGCAGACAATAGTTGTT: the remaining target (mRNA or protein) (fraction of control) was not below 1.

Sequence GAGACGGAGATGAAGGTGTG returned a remaining target (mRNA or protein) (fraction of control) not below 1.

As for GCAGGCTCAGATGCGAGTGG, the remaining target (mRNA or protein) (fraction of control) was not below 1.

On to TCAGACACTACTGGAGTACC, for which the remaining target (mRNA or protein) (fraction of control) stood at 0.76.

Regarding ACTAGAGTGCTTGTAGGTAC, the remaining target (mRNA or protein) (fraction of control) is not below 1.

For the sequence ATCATCAACTCTTCTTTCCC, the remaining target (mRNA or protein) (fraction of control) came to 0.7.

Consider AAATAGTGCCATGGCAATAA, for which the remaining target (mRNA or protein) (fraction of control) came out at 0.98.
